Experimental data reported in PubChem BioAssay AID1259411 (Chemical Carcinogenesis Research Information System (CCRIS), 2018).
Calls of active or inactive are those of the source. The rule behind the calls is not given here.

System: rodent carcinogenicity bioassays, tumor incidence
Assay: CCRIS carcinogenicity studies
Method in brief: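 Archive of carcinogenicity, mutagenicity, tumor promotion and tumor inhibition results drawn from journals, NCI reports and other sources, expert-reviewed; covers 1985-2011 and is no longer updated.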

SMILES: O=CNc1nc(-c2ccc([N+](=O)[O-])o2)cs1
- carcinogen call (Species: DOG, Route: ORAL, Tumor Site: Type of Lesion: URINARY BLADDER, GALL BLADDER): active; positive
- carcinogen call (Species: MOUSE, Route: ORAL, Tumor Site: Type of Lesion: URINARY BLADDER): active; positive
- carcinogen call (Species: MOUSE, Strain/Sex: CD-1/FEMALE, Route: ORAL, Dose: 0, 0.1% IN DIET FOR 36 WK (STUDY DURATION: 81 WK), Tumor Site: Type of Lesion: BLADDER: TRANSITIONAL CELL CARCINOMA, SPINDLE CELL TUMOR, SQUAMOUS CELL CARCINOMA): active; positive
- carcinogen call (Species: MOUSE, Strain/Sex: CD-1/MALE, Route: ORAL, Dose: 0, 0.1% IN DIET FOR 40 WK (STUDY DURATION: 70 WK), Tumor Site: Type of Lesion: BLADDER: TRANSITIONAL CELL CARCINOMA, SPINDLE CELL TUMOR, SQUAMOUS CELL CARCINOMA): active; positive
- carcinogen call (Species: RAT, Route: ORAL, Tumor Site: Type of Lesion: KIDNEY, MAMMARY GLAND): active; positive
- carcinogen call (Species: RAT, Strain/Sex: F344/MALE, Route: ORAL, Dose: 0.001-0.2% IN DIET FOR 30 WK, Tumor Site: Type of Lesion: URINARY BLADDER: CARCINOMA): active; positive
- carcinogen call (Species: RAT, Strain/Sex: SPRAGUE-DAWLEY/FEMALE, Route: ORAL, Dose: 0, 0.188% IN DIET FOR 20 WK FOLLOWED BY CONTROL DIET FOR 20 WK (STUDY DURATION: 40 WK), Tumor Site: Type of Lesion: BLADDER: TRANSITIONAL CELL CARCINOMA): active; positive
- carcinogen call (Species: RAT, Strain/Sex: SPRAGUE-DAWLEY/FEMALE, Route: ORAL, Dose: 0.188% IN DIET FOR 20 WK THEN BASAL DIET FOR 20 WK, Tumor Site: Type of Lesion: URINARY BLADDER: TRANSITIONAL CELL CARCINOMA): active; positive

SMILES: CC(C)(C)c1cc(O)c(C(C)(C)C)cc1O
- carcinogen call (Species: HAMSTER, Strain/Sex: SYRIAN/MALE, Route: ORAL, Dose: 1% IN DIET FOR 24 WK (STUDY DURATION: 24 WK), Tumor Site: Type of Lesion: FORESTOMACH: PAPILLOMA): active; positive

SMILES: CC1=C2C(=CO[C@H](C)[C@H]2C)C(=O)C(C(=O)O)=C1O
- carcinogen call (Species: MOUSE, Strain/Sex: DDD/MALE, Route: ORAL, Dose: 0, 100, 200 PPM IN DIET FOR 70 WK (STUDY DURATION: 70 WK), Dose: 0, 100, 200 PPM IN DIET FOR 70 WK (STUDY DURATION: 70 WK)): inactive; negative
- carcinogen call (Species: RAT, Route: DIET, Dose: 0, 0.1%, FOR 32 WK, Tumor Site: Type of Lesion: KIDNEY: ADENOMA, ADENOCARCINOMA): active; positive
- carcinogen call (Species: RAT, Strain/Sex: F344/MALE, Route: ORAL, Dose: 0.1% IN DIET FOR 80 WK, Tumor Site: Type of Lesion: KIDNEY: CLEAR CELL ADENOMA): active; positive

SMILES: O=c1[nH]cc(N(CCCl)CCCl)c(=O)[nH]1
- carcinogen call (Species: MOUSE, Strain/Sex: STRAIN-A/MALE,FEMALE, Route: INTRAPERITONEAL, Dose: 0.18-12 MG/KG IN 12 DOSES OVER 4 WK, Tumor Site: Type of Lesion: LUNG: ADENOMA): active; positive
- carcinogen call (Species: MOUSE, Strain/Sex: STRAIN-A/MALE,FEMALE, Route: INTRAPERITONEAL, Dose: 8, 20, 40 MG/KG FOR 7 DOSES OVER 24 WK, Dose: 8, 20, 40 MG/KG FOR 7 DOSES OVER 24 WK, Tumor Site: Type of Lesion: LUNG: ADENOMA): active; positive
- carcinogen call (Species: RAT, Strain/Sex: STRAIN-CD/FEMALE, Route: INTRAPERITONEAL, Dose: 0.15, 0.3 MG/KG 3/WK FOR 6 MO, Tumor Site: Type of Lesion: LYMPHATIC SYSTEM: LYMPHOMA, PERITONEAL CAVITY: SARCOMA, MAMMARY GLAND: CARCINOMA, OVARIES: CARCINOMA, Tumor Site: Type of Lesion: LYMPHATIC SYSTEM: LYMPHOMA, PERITONEAL CAVITY: SARCOMA, MAMMARY GLAND: CARCINOMA, OVARIES: CARCINOMA): active; positive
- carcinogen call (Species: RAT, Strain/Sex: STRAIN-CD/MALE, Route: INTRAPERITONEAL, Dose: 0.15, 0.3 MG/KG 3/WK FOR 6 MO, Tumor Site: Type of Lesion: LYMPHATIC SYSTEM: LYMPHOMA, PANCREAS, PERITONEAL CAVITY: SARCOMA, Tumor Site: Type of Lesion: LYMPHATIC SYSTEM: LYMPHOMA, PANCREAS, PERITONEAL CAVITY: SARCOMA): active; positive

SMILES: CSC(=O)c1cccc2nnsc12
- carcinogen call (Species: Mouse, Strain/Sex: Tif:MAGf (SPF) (NIH x MAG hybrid)/Female, Route: Oral (diet), Dose: 0, 10, 100, 2000, 6000 ppm (0; 1.14; 10.8; 234; 696 mg/kg/day) for 18 mo, Dose: 0, 10, 100, 2000, 6000 ppm (0; 1.14; 10.8; 234; 696 mg/kg/day) for 18 mo): inactive; negative
- carcinogen call (Species: Mouse, Strain/Sex: Tif:MAGf (SPF) (NIH x MAG hybrid)/Male, Route: Oral, Dose: 0, 10, 100, 2000, 6000 ppm (0; 1.14; 11.1; 237; 698 mg/kg/day) in feed for 18 mo, Dose: 0, 10, 100, 2000, 6000 ppm (0; 1.14; 11.1; 237; 698 mg/kg/day) in feed for 18 mo): inactive; negative
- carcinogen call (Species: Rat, Strain/Sex: Tif:Ralf (SPF) (Rll/1 x Rll/2 hybrid)/Female, Route: Oral, Dose: 0, 20, 200, 2500, 7500 ppm (0; 0.90; 9.08; 111; 388 mg/kg/day) in feed for 2 yr, Dose: 0, 20, 200, 2500, 7500 ppm (0; 0.90; 9.08; 111; 388 mg/kg/day) in feed for 2 yr): inactive; negative
- carcinogen call (Species: Rat, Strain/Sex: Tif:Ralf (SPF) (Rll/1 x Rll/2 hybrid)/Male, Route: Oral, Dose: 0, 20, 200, 2500, 7500 ppm (0; 0.77; 7.77; 96.9; 312 mg/kg/day) in feed for 2 years, Dose: 0, 20, 200, 2500, 7500 ppm (0; 0.77; 7.77; 96.9; 312 mg/kg/day) in feed for 2 years, Tumor Site: Type of Lesion: Small intestine: Mucinous carcinoma (1/60; 1/59; 2/59 at three highest doses)): active; positive; dpr reviewer notes that only 1 case of mucinous carcinoma has been see

SMILES: O=P(OC(CCl)CCl)(OC(CCl)CCl)OC(CCl)CCl
- carcinogen call (Species: RAT, Strain/Sex: SPRAGUE-DAWLEY CD/FEMALE, Route: ORAL, Dose: 0, 5, 20, 80 MG/KG/D IN FEED FOR 2 YR (STUDY DURATION: 2 YR), Dose: 0, 5, 20, 80 MG/KG/D IN FEED FOR 2 YR (STUDY DURATION: 2 YR), Tumor Site: Type of Lesion: ADRENAL GLAND: CORTICAL ADENOMA, KIDNEY: CORTICAL ADENOMA, LIVER: HEPATOCELLULAR ADENOMA, Tumor Site: Type of Lesion: ADRENAL GLAND: CORTICAL ADENOMA, KIDNEY: CORTICAL ADENOMA, LIVER: HEPATOCELLULAR ADENOMA): active; positive
- carcinogen call (Species: RAT, Strain/Sex: SPRAGUE-DAWLEY CD/MALE, Route: ORAL, Dose: 0, 5, 20, 80 MG/KG/D IN FEED FOR 2 YR (STUDY DURATION: 2 YR), Dose: 0, 5, 20, 80 MG/KG/D IN FEED FOR 2 YR (STUDY DURATION: 2 YR), Tumor Site: Type of Lesion: KIDNEY: RENAL CORTICAL ADENOMA, LIVER: HEPATOCELLULAR ADENOMA, TESTES: INTERSTITIAL CELL TUMOR, Tumor Site: Type of Lesion: KIDNEY: RENAL CORTICAL ADENOMA, LIVER: HEPATOCELLULAR ADENOMA, TESTES: INTERSTITIAL CELL TUMOR): active; positive

SMILES: C=C(Cl)CSC(=S)N(CC)CC
- carcinogen call (Species: MOUSE, Strain/Sex: B6C3F1/FEMALE, Route: ORAL, Dose: 0, 908, 1815 PPM TWA, IN DIET FOR 74 WK (STUDY DURATION: 90-91 WK), Dose: 0, 908, 1815 PPM TWA, IN DIET FOR 74 WK (STUDY DURATION: 90-91 WK), Tumor Site: Type of Lesion: MAMMARY GLAND: ADENOCARCINOMA OR SQUAMOUS METAPLASIA): active; positive
- carcinogen call (Species: MOUSE, Strain/Sex: B6C3F1/MALE, Route: ORAL, Dose: 0, 949, 1897 PPM TWA, IN DIET FOR 74 WK (STUDY DURATION: 91 WK), Dose: 0, 949, 1897 PPM TWA, IN DIET FOR 74 WK (STUDY DURATION: 91 WK), Tumor Site: Type of Lesion: LUNG: ALVEOLAR/BRONCHIOLAR ADENOMA OR ALVEOLAR/BRONCHIOLAR CARCINOMA): active; positive
- carcinogen call (Species: RAT, Strain/Sex: OSBORNE-MENDEL/FEMALE, Route: ORAL, Dose: 0, 250, 404 PPM TWA, IN DIET FOR 63-78 WK (STUDY DURATION: 104-111 WK), Dose: 0, 250, 404 PPM TWA, IN DIET FOR 63-78 WK (STUDY DURATION: 104-111 WK), Tumor Site: Type of Lesion: MAMMARY GLAND: ADENOCARCINOMA): active; positive
- carcinogen call (Species: RAT, Strain/Sex: OSBORNE-MENDEL/MALE, Route: ORAL, Dose: 0, 250, 410 PPM TWA, IN DIET FOR 64-78 WK (STUDY DURATION: 103-111 WK), Dose: 0, 250, 410 PPM TWA, IN DIET FOR 64-78 WK (STUDY DURATION: 103-111 WK), Tumor Site: Type of Lesion: STOMACH: PAPILLOMA, SQUAMOUS CELL PAPILLOMA OR SQUAMOUS CELL CARCINOMA): active; positive

SMILES: CN1CCC[C@H]1c1cccnc1
- carcinogen call (Species: RAT, Strain/Sex: F344/FEMALE, Route: INHALATION, Dose: 0, 500 UG/M3 20 HR/D 5 D/WK FOR 2 YR (STUDY DURATION: 2 YR)): inactive; negative
